≈ marks a conversion by molar mass, not a printed value.
Experiments:
[1] = Apparent permeability of compound across apical to basal membrane in human Caco-2 by ABBA assay; format: ADME, cell-based
[2] = Volume of distribution at steady state in Han Wistar rat at 5 mg/kg, po or 2 mg/kg, iv; format: ADME, organism-based; details: in vivo
[3] = Oral bioavailability in Han Wistar rat at 5 mg/kg; format: ADME, organism-based; details: in vivo
[4] = Oral bioavailability in Beagle dog at 2 mg/kg; format: ADME, organism-based, Canis lupus familiaris; details: in vivo
[5] = Volume of distribution at steady state in Beagle dog at 2 mg/kg, po or 1 mg/kg, iv; format: ADME, organism-based, Canis lupus familiaris; details: in vivo
[6] = 1-Octanol/aqueous buffer partition coefficient, logD of the compound at pH 7.4 by shake flask technique based UPLC analysis; format: physicochemical
[7] = Solubility of the compound in FaSSIF at pH 6.5; format: physicochemical
[8] = Acid dissociation constant, pKa of the compound; format: physicochemical
[9] = Cardiotoxicity in guinea pig assessed as unbound concentration required to increase in QTc level by 10% administered as iv infusion consecutively for 15 mins; format: toxicity, organism-based, Cavia porcellus; details: in vivo
[10] = Solubility of the compound; format: physicochemical
[11] = Cardiotoxicity in guinea pig assessed as increase in QTc level by measuring unbound Cmax at 3 to 30 mg/kg administered as iv infusion consecutively for 15 mins; format: toxicity, organism-based, Cavia porcellus; details: in vivo, dose 3-30 mg/kg

SMILES	logD [6]	pKa [8]	also measured
Cc1cc2ncccc2cc1Nc1ncc2c(n1)n([C@@H]1CNC[C@H]1F)c(=O)n2C	1.6	7.3	Papp A→B [1]: 9.4 ×10⁻⁶ cm/s; Vdss [2]: 2.1 L/kg; bioavailability [3]: 58%; bioavailability [4]: 52%; Vdss [5]: 5.4 L/kg; solubility [7]: 872 µM (≈ 343 µg/mL)
Cc1cc2ncnn2cc1Nc1ncc2c(n1)n(C1CCN(C)CC1)c(=O)n2C	0.3	–	–
Cc1cc2ncccc2cc1Nc1ncc2c(n1)n([C@@H]1CNC[C@@H]1F)c(=O)n2C	1.7	7.2	–
Cc1cc2ncccc2cc1Nc1ncc2c(n1)n([C@@H]1CN(C)C[C@H]1F)c(=O)n2C	2.1	6.5	–
Cc1cc2ncccc2cc1Nc1ncc2c(n1)n(C1CCOCC1)c(=O)n2C	2.5	–	–
Cc1cc2nnccc2cc1Nc1ncc2c(n1)n(C1CCOCC1)c(=O)n2C	2.2	–	–
Cc1cc2ncccc2cc1Nc1ncc2c(n1)n([C@@H]1CCN(C)C1)c(=O)n2C	1.2	8.7	–
Cc1cc2ncccc2cc1Nc1ncc2c(n1)n([C@@H]1CN(C)C[C@@H]1F)c(=O)n2C	2.2	–	–
Cc1cc2ncncc2cc1Nc1ncc2c(n1)n(C1CCOCC1)c(=O)n2C	2.2	–	–
Cc1cc2ncccc2cc1Nc1ncc2c(n1)n(C1CCN(C)CC1)c(=O)n2C	1.8	8.2	Papp A→B [1]: 14 ×10⁻⁶ cm/s; EC10 [9]: 2.3 µM; solubility [10]: 178 µM (≈ 71.8 µg/mL)
Cc1cc2ncccc2cc1Nc1ncc2c(n1)n([C@H]1CCN(CCO)C1)c(=O)n2C	0.9	8.2	Papp A→B [1]: 2.6 ×10⁻⁶ cm/s
Cc1cc2ncccc2cc1Nc1ncc2c(n1)n(C1CCNCC1)c(=O)n2C	0.5	–	Papp A→B [1]: 0.7 ×10⁻⁶ cm/s
Cc1cc2nccnc2cc1Nc1ncc2c(n1)n(C1CCOCC1)c(=O)n2C	2.2	–	–
Cc1cc2nccnc2cc1Nc1ncc2c(n1)n(C1CCN(C)CC1)c(=O)n2C	1.2	–	–
Cc1cc2ncccc2cc1Nc1ncc2c(n1)n([C@H]1CCN(C3COC3)C1)c(=O)n2C	1.5	–	–
Cc1cc2nnccc2cc1Nc1ncc2c(n1)n(C1CCN(C)CC1)c(=O)n2C	1.2	–	–
Cc1cc2ncccc2cc1Nc1ncc2c(n1)n([C@H]1CCN(C)C1)c(=O)n2C	1.1	8.9	Papp A→B [1]: 19 ×10⁻⁶ cm/s; EC10 [11]: 3.9 µM
COCCN1CC[C@H](n2c(=O)n(C)c3cnc(Nc4cc5cccnc5cc4C)nc32)C1	1.7	–	–
Cc1cc2ncnn2cc1Nc1ncc2c(n1)n(C1CCOCC1)c(=O)n2C [AZD-7648]	1.3	–	–

From ChEMBL document CHEMBL5137107, “Optimization of hERG and Pharmacokinetic Properties for Basic Dihydro-8H-purin-8-one Inhibitors of DNA-PK” (ACS Med Chem Lett, 2022)
